Measurements as given in US8980906B2, “Pyridonemorphinan analogs and biological activity on opioid receptors” (Purdue Pharma L.P., priority 2012, dated 2015).

What was measured:
μ-opioid receptor = μ-opioid receptor (Homo sapiens (Human), UniProt P35372); assay: μ-opioid receptor radioligand dose-displacement binding assay ([3H]-diprenorphine); settings: binding affinity, [3H]-diprenorphine displacement; read-out: Ki (nM) Opioid Receptor μ
κ-opioid receptor [1] = biological target: T1, κ-opioid receptor (Homo sapiens (Human), UniProt P41145); assay: κ-opioid receptor [35S]GTPγS functional assay, HEK-293 or CHO cells; type: biochemical; settings: for Emax: relative to U69,593, HEK-293 or CHO cells
κ-opioid receptor [2] = biological target: T1, κ-opioid receptor; assay: κ-opioid receptor radioligand dose-displacement binding assay ([3H]-U69,593); settings: binding affinity, [3H]-U69,593 displacement
Outline: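 Competition binding with 0.4 nM [3H]-U69,593 and 15 μg membrane protein from HEK 293 cells expressing recombinant human κ receptor, in 50 mM Tris pH 7.4 with 5% DMSO, 1 h at about 25 °C. Nonspecific binding defined with 10 μM naloxone or U69,593; bound ligand collected by GF/C filtration and scintillation counting.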

ORL-1 receptor = ORL-1 receptor (Homo sapiens (Human), UniProt P41146); assay: ORL-1 receptor radioligand binding assay ([3H]-nociceptin); settings: binding affinity, [3H]-nociceptin displacement
Method: ORL-1 Receptor Binding Assay Procedure: Membranes from recombinant HEK-293 cells expressing the human opioid receptor-like receptor (ORL-1) (Perkin Elmer, Shelton, Conn.) were prepared by lysing cells in ice-cold hypotonic buffer (2.5 mM MgCl2, 50 mM HEPES, pH 7.4) (10 ml/10 cm dish) followed by homogenization with a tissue grinder/Teflon pestle. Membranes were collected by centrifugation at 30,000×g for […] at 4° C. and pellets resuspended in hypotonic buffer to a final concentration of 1-3 mg/ml. Protein concentrations were determined using the BioRad protein assay reagent with bovine serum albumen as standard. Aliquots of the ORL-1 receptor membranes were stored at −80° C.
Radioligand binding assays (screening and dose-displacement) used 0.1 nM [^3H]-nociceptin (Perkin Elmer, Shelton, Conn.; 87.7 Ci/mmole) with 12 μg membrane protein in a final volume of 500 μl binding buffer (10 mM MgCl2, 1 mM EDTA, 5% DMSO, 50 mM HEPES, pH 7.4). Non-specific binding was determined in the presence of […] unlabeled nociceptin (American Peptide Company). All reactions were performed in 96-deep well polypropylene plates for 1 h at room temperature. Binding reactions were terminated by rapid filtration onto 96-well Unifilter GF/C filter plates (Perkin Elmer, Shelton, Conn.) presoaked in 0.5% polyethylenimine (Sigma). Harvesting was performed using a 96-well tissue harvester (Perkin Elmer, Shelton, Conn.) followed by three filtration washes with 500 μl ice-cold binding buffer. Filter plates were subsequently dried at 50° C. for 2-3 hours. Fifty μl/well scintillation cocktail (Perkin Elmer, Shelton, Conn.) was added and plates were counted in a Packard Top-Count for 1 min/well. The data from screening and dose-displacement experiments were analyzed using Microsoft Excel and the curve fitting functions in GraphPad PRISM™, v. 3.0 or higher, respectively, or an in-house function for one-site competition curve-fitting.

Row | SMILES | Ki (μ-opioid receptor) | EC50 (κ-opioid receptor [1]) | Emax (κ-opioid receptor [1]) | Ki (κ-opioid receptor [2]) | Ki (ORL-1 receptor)
1 | O=C(O)c1cc2c([nH]c1=O)C[C@]13CCN(CC4CC4)[C@H](Cc4ccc(O)cc41)[C@]3(O)C2 [Compound 9, (6R,6aS,12aR)-15-(cyclopropylmethyl)-2,6a-dihydroxy-10-oxo-6,6a,7,10,11,12-hexahydro-5H-6,12a-(epiminoethano)naphtho[2,1-g]quinoline-9-carboxylic acid] | 3.11 ± 0.9 nM | > 20000 nM | 2.33 ± 1.33% | 1.52 ± 0.18 nM | 2320 ± 320 nM
2 | O=C(O)c1cc2c([nH]c1=O)C[C@]13CCN(CC4CC4)[C@H](Cc4ccc(O)cc41)[C@@H]3C2 [Compound 11, (6R,6aR,12aS)-15-(cyclopropylmethyl)-2-hydroxy-10-oxo-6,6a,7,10,11,12-hexahydro-5H-6,12a-(epiminoethano)naphtho[2,1-g]quinoline-9-carboxylic acid] | 0.52 ± 0.12 nM | 1.4 ± 0.56 nM | 19 ± 1.53% | 18.5 ± 7.73 nM | 4.91 ± 0.82 nM
3 | NC(=O)c1cc2c([nH]c1=O)C[C@]13CCN(CC4CC4)[C@H](Cc4ccc(O)cc41)[C@]3(O)C2 [Compound 5, (6R,6aS,12aR)-15-(cyclopropylmethyl)-2,6a-dihydroxy-10-oxo-6,6a,7,10,11,12-hexahydro-5H-6,12a-(epiminoethano)naphtho[2,1-g]quinoline-9-carboxamide] | 6.55 ± 2.06 nM | 4.37 ± 1.11 nM | 10.2 ± 1.18% | 0.58 ± 0.15 nM | 1330 ± 310 nM
